The results in this text go back to US20260374754A1, “N-((ISOQUINOLIN-6-YL)METHYL)-1H-PYRAZOLE-4-CARBOXAMIDE DERIVATIVES AS PLASMA KALLIKREIN INHIBITORS FOR THE TREATMENT OF HEREDITARY ANGIODEMA” (Takeda Pharmaceutical Company Limited, priority 2022, published 2026).

SMILES strings stand for the structures. Where only a bound is given, the exact number is not on record here.

For the assay, the target named is human activated kallikrein enzyme (Homo sapiens, UniProt P03952). As to the kind of experiment: Inhibition of human activated plasma kallikrein, fluorogenic PFR-AMC substrate, 500 pM enzyme format. The format is biochemical. The note with it: 500 pM activated kallikrein; 300 μM PFR-AMC; 30 min preincubation; 10 min room temperature; pH 7.5; read-out: Primary Dose Response Assay: Average EC50. In a few lines: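 500 pM activated kallikrein preincubated 30 min at room temperature with inhibitors in pH 7.5 Tris/EDTA/NaCl buffer with PEG-400 and Triton X-100. Reaction started with 300 μM PFR-AMC, run 10 min at room temperature; AMC fluorescence read at ex 380/em 460 nm.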
Chain of human activated kallikrein enzyme (P03952 391-638 limits assumed): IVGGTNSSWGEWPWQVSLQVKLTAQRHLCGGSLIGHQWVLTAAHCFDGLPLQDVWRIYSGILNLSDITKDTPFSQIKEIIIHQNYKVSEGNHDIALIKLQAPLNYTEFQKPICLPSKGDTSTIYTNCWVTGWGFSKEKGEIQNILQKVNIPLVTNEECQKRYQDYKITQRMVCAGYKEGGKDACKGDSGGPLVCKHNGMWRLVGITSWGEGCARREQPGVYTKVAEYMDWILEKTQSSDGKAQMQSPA
Chain of human activated kallikrein enzyme (P03952 20-390 partner limits assumed): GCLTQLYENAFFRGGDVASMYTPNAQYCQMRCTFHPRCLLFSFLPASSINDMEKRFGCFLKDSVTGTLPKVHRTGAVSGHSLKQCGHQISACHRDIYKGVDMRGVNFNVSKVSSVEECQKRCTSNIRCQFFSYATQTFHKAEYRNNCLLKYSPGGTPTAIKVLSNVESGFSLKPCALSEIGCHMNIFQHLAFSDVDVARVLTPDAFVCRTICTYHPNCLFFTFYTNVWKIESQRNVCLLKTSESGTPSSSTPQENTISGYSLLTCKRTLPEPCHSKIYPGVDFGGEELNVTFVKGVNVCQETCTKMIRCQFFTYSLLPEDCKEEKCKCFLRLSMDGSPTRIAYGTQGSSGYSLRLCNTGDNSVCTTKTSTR
Turning to `Cc1cc2c(N)nccc2c(C)c1CNc1nccc2c1cnn2Cc1cn2cc(C3CC3)cnc2n1` [Example 393, 6-(((1-((6-cyclopropylimidazo[1,2-a]pyrimidin-2-yl)methyl)-1H-pyrazolo[4,3-c]pyridin-4-yl)amino)methyl)-5,7-dimethylisoquinolin-1-amine], the EC50 is 0.1 to 1 µM.

Turning to `Cc1cc2c(N)nccc2c(C)c1CNc1cc(NCc2ccc(CO)cc2)ncn1` [Example I-461, (4-(((6-(((1-amino-5,7-dimethylisoquinolin-6-yl)methyl)amino)pyrimidin-4-yl)amino)methyl)phenyl)methanol], the EC50 lay in the range of 0.001 to 0.01 µM.

As for `Cc1cc2c(N)nccc2c(C)c1CNc1cc(NCc2cn3cc(C(F)(F)F)ccc3n2)ncn1` [Example 329, N^4-((1-amino-5,7-dimethylisoquinolin-6-yl)methyl)-N^6-((6-(trifluoromethyl)imidazo[1,2-a]pyridin-2-yl)methyl)pyrimidine-4,6-diamine], the EC50 was below 0.001 µM.

Take `Cc1cc2c(N)nccc2c(C)c1CNc1cc(OCc2ccc(-n3ccnc3)cc2)cnn1` [Example 441, 6-(((5-((4-(1H-imidazol-1-yl)benzyl)oxy)pyridazin-3-yl)amino)methyl)-5,7-dimethylisoquinolin-1-amine]: the EC50 fell in the range of 0.001 to 0.01 µM.

`Cc1cc2c(N)nccc2c(C)c1CNc1cc(C(O)c2cn3cc(C4CC4)ccc3n2)ncn1` (stereo not drawn) [Example 406, (6-(((1-amino-5,7-dimethylisoquinolin-6-yl)methyl)amino)pyrimidin-4-yl)(6-cyclopropylimidazo[1,2-a]pyridin-2-yl)methanol]: the EC50 is below 0.001 µM.

On to `CCN(CC)C(=O)Cc1ccc(Cn2cc(C(=O)NCc3c(C)cc4c(N)nccc4c3C)cn2)cc1` [Example 226, N-((1-amino-5,7-dimethylisoquinolin-6-yl)methyl)-1-(4-(2-(diethylamino)-2-oxoethyl)benzyl)-1H-pyrazole-4-carboxamide], for which the EC50 was below 0.001 µM.

As for `Cc1cc2c(N)nccc2c(C)c1CNC(=O)c1cnn(Cc2ccc(CC(=O)O)cc2)c1` [Example 131, 2-(4-((4-(((1-amino-5,7-dimethylisoquinolin-6-yl)methyl)carbamoyl)-1H-pyrazol-1-yl)methyl)phenyl)acetic acid], the EC50 lay within 0.1 to 1 µM.

With `CCOC(=O)CCc1cc(C2CC2)cc2cc(COc3cc(NCc4c(C)cc5c(N)nccc5c4C)ncn3)nn12` [Example 270, ethyl 3-(2-(((6-(((1-amino-5,7-dimethylisoquinolin-6-yl)methyl)amino)pyrimidin-4-yl)oxy)methyl)-5-cyclopropylpyrazolo[1,5-a]pyridin-7-yl)propanoate], the EC50 lay within 0.001 to 0.01 µM.

On to `Cc1cc2c(N)nccc2c(C)c1CNC(=O)c1cnn(Cc2ccc(Cc3nncn3C)cc2)c1` [Example 117, N-((1-amino-5,7-dimethylisoquinolin-6-yl)methyl)-1-(4-((4-methyl-4H-1,2,4-triazol-3-yl)methyl)benzyl)-1H-pyrazole-4-carboxamide], for which the EC50 was in the range of 0.001 to 0.01 µM.

`Cc1cc2c(N)nccc2c(C)c1CNc1cc(NCc2ccc3c(-n4ccccc4=O)cccc3c2)ncn1` [Example 245, 1-(6-(((6-(((1-amino-5,7-dimethylisoquinolin-6-yl)methyl)amino)pyrimidin-4-yl)amino)methyl)naphthalen-1-yl)pyridin-2(1H)-one]: the EC50 was below 0.001 µM.

`Cc1cc2c(N)nccc2c(C)c1CNc1cc(OCc2cn3cc(C4CC4)cc(-n4c(C)nnc4C)c3n2)ncn1` [Example 257, 6-(((6-((6-cyclopropyl-8-(3,5-dimethyl-4H-1,2,4-triazol-4-yl)imidazo[1,2-a]pyridin-2-yl)methoxy)pyrimidin-4-yl)amino)methyl)-5,7-dimethylisoquinolin-1-amine]: the EC50 is 0.001 to 0.01 µM.

`CCOC(=O)Cc1ccc(Cn2cc(C(=O)NCc3c(C)cc4c(N)nccc4c3C)cn2)cc1` [Example 55, ethyl 2-(4-((4-(((1-amino-5,7-dimethylisoquinolin-6-yl)methyl)carbamoyl)-1H-pyrazol-1-yl)methyl)phenyl)acetate]: the EC50 was 0.001 to 0.01 µM.

Take `Cc1cc2c(N)nccc2c(C)c1CNC(=O)c1cnn(Cc2ccc(CC(=O)NC34CC(C3)C4)cc2)c1` [Example 221, N-((1-amino-5,7-dimethylisoquinolin-6-yl)methyl)-1-(4-(2-(bicyclo[1.1.1]pentan-1-ylamino)-2-oxoethyl)benzyl)-1H-pyrazole-4-carboxamide]: the EC50 lay in the range of 0.001 to 0.01 µM.

Take `Cc1cc2c(N)nccc2c(C)c1CNc1cc(NCc2cn3ccccc3n2)ncn1` [Example 321, N^4-((1-amino-5,7-dimethylisoquinolin-6-yl)methyl)-N^6-(imidazo[1,2-a]pyridin-2-ylmethyl)pyrimidine-4,6-diamine]: the EC50 was in the range of 0.001 to 0.01 µM.

With `Cc1cc2c(N)nccc2c(C)c1CNC(=O)c1cnn(Cc2cc3cc(Cl)ccc3s2)c1` [Example 65, N-((1-amino-5,7-dimethylisoquinolin-6-yl)methyl)-1-((5-chlorobenzo[b]thiophen-2-yl)methyl)-1H-pyrazole-4-carboxamide], the EC50 was below 0.001 µM.

On to `Cc1ccn2cc(CNc3cc(NCc4c(C)cc5c(N)nccc5c4C)ncn3)nc2c1` [Example 322, N^4-((1-amino-5,7-dimethylisoquinolin-6-yl)methyl)-N^6-((7-methylimidazo[1,2-a]pyridin-2-yl)methyl)pyrimidine-4,6-diamine], for which the EC50 fell in the range of 0.001 to 0.01 µM.

Take `Cc1cc2c(N)nccc2c(C)c1CNC(=O)c1cnn(Cc2cc3cc(C(F)(F)F)ccc3s2)c1` [Example 66, N-((1-amino-5,7-dimethylisoquinolin-6-yl)methyl)-1-((5-(trifluoromethyl)benzo[b]thiophen-2-yl)methyl)-1H-pyrazole-4-carboxamide]: the EC50 fell in the range of 0.001 to 0.01 µM.

Regarding `CCOC(=O)Nc1nccc2c(C)c(CNC(=O)c3cnn(Cc4ccc5ncc(Cl)cc5c4)c3)c(C)cc12` [Example 132, ethyl (6-((1-((3-chloroquinolin-6-yl)methyl)-1H-pyrazole-4-carboxamido)methyl)-5,7-dimethylisoquinolin-1-yl)carbamate], the EC50 lay in the range of 0.01 to 0.1 µM.

On to `Cc1cc2c(N)nccc2c(C)c1CNc1cc(OCc2ccc(Cn3cccc(C4CC4)c3=O)cc2)cnn1` [Example 437, 1-(4-(((6-(((1-amino-5,7-dimethylisoquinolin-6-yl)methyl)amino)pyridazin-4-yl)oxy)methyl)benzyl)-3-cyclopropylpyridin-2(1H)-one], for which the EC50 is below 0.001 µM.

With `Cc1cc2c(N)nccc2c(C)c1CNC(=O)c1cnn(Cc2ccccn2)c1` [Example 78, N-((1-amino-5,7-dimethylisoquinolin-6-yl)methyl)-1-(pyridin-2-ylmethyl)-1H-pyrazole-4-carboxamide], the EC50 lay within 0.1 to 1 µM.

As for `Cc1cc2c(N)nccc2c(C)c1CNC(=O)c1cnn(Cc2cn3cc(C4CC4)c(Cl)cc3n2)c1` [Example 147, N-((1-amino-5,7-dimethylisoquinolin-6-yl)methyl)-1-((7-chloro-6-cyclopropylimidazo[1,2-a]pyridin-2-yl)methyl)-1H-pyrazole-4-carboxamide], the EC50 is below 0.001 µM.

For `Cc1cc2c(N)nccc2c(C)c1CNC(=O)c1cnc(Cc2cn3cc(C4CC4)ccc3n2)s1` [Example 198, N-((1-amino-5,7-dimethylisoquinolin-6-y1)methyl)-2-((6-cyclopropylimidazo[1,2-a]pyridin-2-yl)methyl)thiazole-5-carboxamide], the EC50 fell in the range of 0.001 to 0.01 µM.

Consider `Cc1cc2c(N)nccc2c(C)c1CNc1cc(N(C)Cc2ccc3ncccc3c2)ncn1` [Example 308, N^4-((1-amino-5,7-dimethylisoquinolin-6-yl)methyl)-N^6-methyl-N^6-(quinolin-6-ylmethyl)pyrimidine-4,6-diamine], for which the EC50 lay in the range of 0.01 to 0.1 µM.

As for `Cc1cc2c(N)nccc2c(C)c1CNc1cc(NCc2ccc(Cc3ncnn3C)cc2)ncn1` [Example 342, N^4-((1-amino-5,7-dimethylisoquinolin-6-yl)methyl)-N^6-(4-((1-methyl-1H-1,2,4-triazol-5-yl)methyl)benzyl)pyrimidine-4,6-diamine], the EC50 was below 0.001 µM.

For `Cc1cc2c(N)nccc2c(C)c1CNc1cc(OCc2ccc3nccn3c2)cnn1` [Example 410, 6-(((5-(imidazo[1,2-a]pyridin-6-ylmethoxy)pyridazin-3-yl)amino)methyl)-5,7-dimethylisoquinolin-1-amine], the EC50 lay in the range of 0.1 to 1 µM.

For the molecule `Cc1cc2c(N)nccc2c(C)c1CNC(=O)c1cnn(Cc2ccc3c(-n4cccn4)cccc3c2)c1` [Example 112, 1-((5-(1H-pyrazol-1-yl)naphthalen-2-yl)methyl)-N-((1-amino-5,7-dimethylisoquinolin-6-yl)methyl)-1H-pyrazole-4-carboxamide], the EC50 was below 0.001 µM.

Turning to `Cc1cc2c(N)nccc2c(C)c1CNC(=O)c1cnn(Cc2ccc(CC(=O)N3CC4CC4C3)c(Cl)c2)c1` (stereo not drawn) [Example I-474, 1-(4-(2-(3-azabicyclo[3.1.0]hexan-3-yl)-2-oxoethyl)-3-chlorobenzyl)-N-((1-amino-5,7-dimethylisoquinolin-6-yl)methyl)-1H-pyrazole-4-carboxamide], the EC50 is below 0.001 µM.

As to `Cc1cc2c(N)nccc2c(C)c1CNc1nncc(NCc2ccc(Cn3cccn3)cc2)n1` [Example 376, N^5-(4-((1H-pyrazol-1-yl)methyl)benzyl)-N^3-((1-amino-5,7-dimethylisoquinolin-6-yl)methyl)-1,2,4-triazine-3,5-diamine], the concentration giving a half-maximal response (EC50) is below 0.001 µM.

`CC(=O)NC1(c2ccc(Cn3cc(C(=O)NCc4c(C)cc5c(N)nccc5c4C)cn3)cc2)CC1` [Example 19, 1-(4-(1-acetamidocyclopropyl)benzyl)-N-((1-amino-5,7-dimethylisoquinolin-6-yl)methyl)-1H-pyrazole-4-carboxamide]: the EC50 was below 0.001 µM.

For `Cc1cc2c(N)nccc2c(C)c1CNc1ccc2nnc(Cc3ccc4ncc(Cl)cc4c3)n2c1` [Example 519, 6-(((3-((3-chloroquinolin-6-yl)methyl)-[1,2,4]triazolo[4,3-a]pyridin-6-yl)amino)methyl)-5,7-dimethylisoquinolin-1-amine], the EC50 lay in the range of 0.1 to 1 µM.

The EC50 is the concentration giving half of the maximal effect.
